The source of these data is the supplement of paper PMC10627819.

Test in all cases: Bliss interaction score (quartile over a dose matrix) (fitness difference); higher = more antagonism (negative = synergy)
The test system of assay [1] is B. subtilis 168. The essentials: (§1)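 The Bliss score was calculated by subtracting the expected fitness, the product of single-drug values, from the observed fitness. OD595 at entry into stationary phase, over the plate's robust no-drug mean and capped at 1, served as the fitness readout. Single-drug values were inferred from combination data, and scores are summarised by quartiles across technical, biological and donor/recipient replicates.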

Assay [2] relates to S. aureus DSM 20231. The essentials: as §1
The subject of assay [3] is S. aureus Newman. The essentials: as §1
The subject of assay [4] is S. pneumoniae D39V. The essentials:
as §1

SMILES strings stand for the structures.
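Note: first quartile when negative (synergy) and third quartile when positive (antagonism).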

Regarding `CC[C@H]1OC(=O)[C@H](C)[C@@H](O[C@H]2C[C@@](C)(OC)[C@@H](O)[C@H](C)O2)[C@H](C)[C@@H](O[C@@H]2O[C@H](C)C[C@H](N(C)C)[C@H]2O)[C@](C)(O)C[C@@H](C)CN(C)[C@H](C)[C@@H](O)[C@]1(C)O` [Azithromycin] + CO[C@@]12[C@H](COC(N)=O)C3=C(C(=O)C(C)=C(N)C3=O)N1C[C@@H]1N[C@@H]12 [MitomycinC], the Bliss interaction score in assay [1] was 0.116; in assay [2] it was -0.0652; in assay [3] it was 0.0499; in assay [4], -0.0779.

In the case of `CN(N=O)C(=O)N[C@@H](C=O)[C@@H](O)[C@H](O)[C@H](O)CO` [Streptozotocin] + CC[C@H]1OC(=O)[C@H](C)C(=O)[C@H](C)[C@@H](O[C@@H]2O[C@H](C)C[C@H](N(C)C)[C@H]2O)[C@](C)(OC)C[C@@H](C)C(=O)[C@H](C)[C@H]2N(CCCCn3cnc(-c4cccnc4)c3)C(=O)O[C@]12C [Telithromycin], the Bliss interaction score in assay [1] is 0.0498; in assay [2], 0.0346; in assay [3] it was -0.0223; in assay [4], 0.0699.

For the compound `Clc1ccc(COC(Cn2ccnc2)c2ccc(Cl)cc2Cl)c(Cl)c1` (stereo unspecified) [Miconazole] + CN[C@H](CC(C)C)C(=O)N[C@H]1C(=O)N[C@@H](CC(N)=O)C(=O)N[C@H]2C(=O)N[C@H]3C(=O)N[C@H](C(=O)N[C@H](C(=O)O)c4cc(O)cc(O)c4-c4cc3ccc4O)[C@H](O[C@H]3C[C@](C)(N)[C@@H](O)[C@H](C)O3)c3ccc(c(Cl)c3)Oc3cc2cc(c3O[C@@H]2O[C@H](CO)[C@@H](O)[C@H](O)[C@H]2O[C@H]2C[C@](C)(NCc3ccc(-c4ccc(Cl)cc4)cc3)[C@@H](O)[C@H](C)O2)Oc2ccc(cc2Cl)[C@H]1O [Oritavancin], the Bliss interaction score is -0.0225 in assay [1], -0.0286 in assay [2], -0.0754 in assay [3] and -0.0639 in assay [4].

Regarding `O=C(O)[C@H]1/C(=C/CO)O[C@@H]2CC(=O)N21` [Clavulanic] + O=C(O[C@@H]1Cc2c(O)cc(O)cc2O[C@@H]1c1cc(O)c(O)c(O)c1)c1cc(O)c(O)c(O)c1 [EGCG], the Bliss interaction score in assay [1] is -0.0667; in assay [2], 0.0689; in assay [3], 0.168; in assay [4] it was 0.0628.

Take `CC1=C(C(=O)O)N2C(=O)[C@@H](NC(=O)[C@H](N)c3ccccc3)[C@H]2SC1` [Cephalexin] + O=C(O)[C@H]1/C(=C/CO)O[C@@H]2CC(=O)N21 [Clavulanic]: the Bliss interaction score in assay [1] is -0.0461; in assay [2], 0.0895; in assay [3], -0.0674; in assay [4], -0.14.

Take `CC1=C(C(=O)O)N2C(=O)[C@@H](NC(=O)[C@H](N)c3ccccc3)[C@H]2SC1` [Cephalexin] + C[C@H]1c2cccc(O)c2C(=O)C2=C(O)[C@]3(O)C(=O)C(C(N)=O)=C(O)[C@@H](N(C)C)[C@@H]3[C@@H](O)[C@@H]21 [Doxycycline]: the Bliss interaction score is -0.0302 in assay [1], 0.0912 in assay [2], 0.0562 in assay [3] and 0.183 in assay [4].

With `CC1=C(C(=O)O)N2C(=O)[C@@H](NC(=O)[C@H](N)c3ccccc3)[C@H]2SC1` [Cephalexin] + C[C@H]1COc2c(N3CCN(C)CC3)c(F)cc3c(=O)c(C(=O)O)cn1c23 [Levofloxacin], the Bliss interaction score was -0.0126 in assay [1], -0.037 in assay [2], 0.0499 in assay [3] and -0.152 in assay [4].

Regarding `O=C(O)[C@H]1/C(=C/CO)O[C@@H]2CC(=O)N21` [Clavulanic] + Cc1cc(NS(=O)(=O)c2ccc(N)cc2)no1 [Sulfamethoxazol], the Bliss interaction score is 0.0509 in assay [1], 0.0966 in assay [2], -0.0365 in assay [3] and 0.0674 in assay [4].

Take `O=C(O)[C@H]1/C(=C/CO)O[C@@H]2CC(=O)N21` [Clavulanic] + CN(C)c1cc(NC(=O)CNC(C)(C)C)c(O)c2c1C[C@H]1C[C@H]3[C@H](N(C)C)C(O)=C(C(N)=O)C(=O)[C@@]3(O)C(O)=C1C2=O [Tigecycline]: the Bliss interaction score in assay [1] is 0.0342; in assay [2] it was 0.0703; in assay [3], -0.0659; in assay [4], 0.0386.

Consider `CC1=C(C(=O)O)N2C(=O)[C@@H](NC(=O)[C@H](N)c3ccccc3)[C@H]2SC1` [Cephalexin] + COc1cccc2c1C(=O)c1c(O)c3c(c(O)c1C2=O)C[C@@](O)(C(=O)CO)C[C@@H]3O[C@H]1C[C@H](N)[C@H](O)[C@H](C)O1 [Doxorubicin], for which the Bliss interaction score in assay [1] is 0.084; in assay [2] it was 0.0343; in assay [3], -0.0552; in assay [4] it was -0.111.

Turning to `CC1=C(C(=O)O)N2C(=O)[C@@H](NC(=O)[C@H](N)c3ccccc3)[C@H]2SC1` [Cephalexin] + CC[C@H]1OC(=O)[C@H](C)[C@@H](O[C@H]2C[C@@](C)(OC)[C@@H](O)[C@H](C)O2)[C@H](C)[C@@H](O[C@@H]2O[C@H](C)C[C@H](N(C)C)[C@H]2O)[C@](C)(O)C[C@@H](C)C(=O)[C@H](C)[C@@H](O)[C@]1(C)O [Erythromycin], the Bliss interaction score was -0.0405 in assay [1], -0.0356 in assay [2], 0.0826 in assay [3] and 0.0656 in assay [4].

On to `CC1=C(C(=O)O)N2C(=O)[C@@H](NC(=O)[C@H](N)c3ccccc3)[C@H]2SC1` [Cephalexin] + CC1(C)S[C@@H]2[C@H](NC(=O)Cc3ccccc3)C(=O)N2[C@H]1C(=O)O [PenicillinG], for which the Bliss interaction score in assay [1] is 0.0543; in assay [2], -0.0449; in assay [3], -0.0472; in assay [4], -0.199.

On to `CNC(C)C1CCC(N)C(OC2C(N)CC(N)C(OC3OCC(C)(O)C(NC)C3O)C2O)O1` (stereo unspecified) [Gentamicin] + CN[C@H](CC(C)C)C(=O)N[C@H]1C(=O)N[C@@H](CC(N)=O)C(=O)N[C@H]2C(=O)N[C@H]3C(=O)N[C@H](C(=O)N[C@H](C(=O)O)c4cc(O)cc(O)c4-c4cc3ccc4O)[C@H](O[C@H]3C[C@](C)(N)[C@@H](O)[C@H](C)O3)c3ccc(c(Cl)c3)Oc3cc2cc(c3O[C@@H]2O[C@H](CO)[C@@H](O)[C@H](O)[C@H]2O[C@H]2C[C@](C)(NCc3ccc(-c4ccc(Cl)cc4)cc3)[C@@H](O)[C@H](C)O2)Oc2ccc(cc2Cl)[C@H]1O [Oritavancin], for which the Bliss interaction score in assay [1] (main component drawn) was 0.048; in assay [2] (main component drawn), -0.0507; in assay [3] (main component drawn), 0.0919; in assay [4] (main component drawn), 0.0748.

Take `CC1=C(C(=O)O)N2C(=O)[C@@H](NC(=O)[C@H](N)c3ccccc3)[C@H]2SC1` [Cephalexin] + O=C(O)c1cn(C2CC2)c2cc(N3CCNCC3)c(F)cc2c1=O [Ciprofloxacin]: the Bliss interaction score was -0.084 in assay [1], 0.0694 in assay [2], 0.067 in assay [3] and -0.138 in assay [4].
